In patent US10946023B2, “Therapeutically active compounds and their methods of use” (Agios Pharmaceuticals, Inc., priority 2013, dated 2021):

Tests used:
HT1080 cells = assay: HT1080 cellular assay, 2-HG by LC-MS (IDH1 R132C); type: cell-based; details: Homo sapiens, HT-1080
Experimental: The following describes the experimental procedures that can be used to obtain data on column 5 of Table 4.
Cells (HT1080 or U87MG) are grown in T125 flasks in DMEM containing 10% FBS, 1× penicillin/streptomycin and 500 ug/mL G418 (present in U87MG cells only). They are harvested by trypsin and seeded into 96 well white bottom plates at a density of 5000 cell/well in 100 ul/well in DMEM with 10% FBS. No cells are placed in columns 1 and 12. Cells are incubated overnight at 37° C. in 5% CO2. The next day test compounds are made up at 2× the final concentration and 100 ul are added to each cell well. The final concentration of DMSO is 0.2% and the DMSO control wells are plated in row G. The plates are then placed in the incubator for 48 hours. At 48 hours, 100 ul of media is removed from each well and analyzed by LC-MS for 2-HG concentrations. The cell plate is placed back in the incubator for another 24 hours. At 72 hours post compound addition, 10 mL/plate of Promega Cell Titer Glo reagent is thawed and mixed. The cell plate is removed from the incubator and allowed to equilibrate to room temperature. Then 100 ul of Promega Cell Titer Glo reagent is added to each well of media. The cell plate is then placed on an orbital shaker for 10 minutes and then allowed to sit at room temperature for 20 minutes. The plate is then read for luminescence with an integration time of 500 ms.
HT1080 cells are maintained in RPMI containing 10% FBS, 1× penicillin/streptomycin. […] The next day compounds are prepared in 100% DMSO and then diluted in media for a final concentration of 0.2% DMSO. Media is removed from the cell plates and 200 μL of the compound dilutions are added to each well. […] The cell plates are then allowed to incubate another 24 hours.

IDH1 R132C = IDH1 R132C (Homo sapiens (Human), UniProt O75874, R132C); assay: IDH1 R132C homodimer NADPH depletion assay (Table 4 column 6); type: biochemical
Experimental: (§1) The following describes the experimental procedures that can be used to obtain data on columns 3 and 6 of Table 4.
(§2) A test compound is prepared as 10 mM stock in DMSO and diluted to 50× final concentration in DMSO, for a 50 μl reaction mixture. IDH enzyme activity converting alpha-ketoglutarate to 2-hydroxyglutaric acid is measured using a NADPH depletion assay. In the assay the remaining cofactor is measured at the end of the reaction with the addition of a catalytic excess of diaphorase and resazurin, to generate a fluorescent signal in proportion to the amount of NADPH remaining. […] The reaction is started with the addition of 10 μl of Substrate Mix ([…], 5 mM alpha-ketoglutarate, in Assay Buffer) and the mixture is incubated for 90 minutes at room temperature.
The concentration of NADPH and alpha-ketoglutarate in the Substrate Buffer is 20 μM and 1 mM, respectively.

[1] = target: IDH1 wt/IDH1 R132H heterodimer (Homo sapiens (Human), UniProt O75874, R132H); assay: IDH1 wt/R132H heterodimer NADPH depletion (diaphorase/resazurin) assay; type: biochemical; details: read-out: IDH1 wt/R132H NADPH/NADP IC50 not saturated
Experimental: The following describes the experimental procedures that can be used to obtain data on columns 2 and 4 of Table 4 and column 2 of Table 5.
In the primary reaction, the reduction of α-KG acid to 2-HG is accompanied by a concomitant oxidation of NADPH to NADP. The amount of NADPH remaining at the end of the reaction time is measured in a secondary diaphorase/resazurin reaction in which the NADPH is consumed in a 1:1 molar ratio with the conversion of resazurin to the highly fluorescent resorufin.
The mixture of compound, enzyme, and cofactor is pre-incubated at room temperature for 1 hr prior to the addition of alpha-ketoglutarate. To perform the secondary reaction, 10 uL of 1× buffer containing 36 μg/ml diaphorase and […] resazurin is added to the primary reaction and incubated for a further 5 minutes at 25° C. […] Compounds or compound dilutions are prepared in 100% DMSO concentration and diluted 1:50 into the final reaction. […] IC50s are determined.
IDH1 or IDH2 wildtype (wt) and mutant heterodimers are expressed and purified by methods known in the art. […] Co-expression of IDH1wt-his and IDH1R132C-flag is carried out in sf9 insect cells. […] Cells are disrupted with 4 passes through an M-Y110 Micro fluidizer (Microfluidics) set to 500 psi, and then centrifuged at 22,000 rcf for 20 min at 4° C. […]

[2] = target: IDH1-R132 homodimer enzyme (R132H) (Homo sapiens (Human), UniProt O75874, R132H); assay: IDH1 R132H homodimer NADPH depletion assay (Table 4 column 3); type: biochemical
Experimental: as §1, §2

IDH2 R140Q = IDH2 R140Q (Homo sapiens (Human), UniProt P48735, R140Q); assay: IDH2 R140Q cofactor depletion assay (Table 4 column 7); type: biochemical
Description: The following describes the experimental procedures used to obtain data on column 7 of Table 4.
The reaction is terminated by the addition of a second enzyme, diaphorase, and a corresponding substrate, resazurin. Diaphorase reduces resazurin to the highly fluorescent resorufin with the concomitant oxidation of NADPH to NADP, both halting the IDH2 reaction by depleting the available cofactor pool and facilitating quantitation of the amount of cofactor remaining after a specific time period through quantitative production of an easily detected fluorophore.
The test compound is then incubated for one hour at room temperature with the enzyme; before starting the IDH2 reaction with the addition of 10 μl of substrate mix containing 4 μM NADPH and 1.6 mM α-KG in the buffer described above. After a further 16 hours of incubation at room temperature, the reaction is halted and the remaining NADPH measured through conversion of resazurin to resorufin by the addition of 25 μl Stop Mix (36 μg/ml diaphorase enzyme and 60 μM resazurin; in buffer).

[3] = test system: U87MG pLVX-IDH2 R140Q-neo cells; assay: U87MG pLVX-IDH2 R140Q-neo cell based assay, 2-HG by LC-MS; details: Homo sapiens, U-87 MG

Chain of IDH1 wt/IDH1 R132H heterodimer (O75874 whole entry R132H): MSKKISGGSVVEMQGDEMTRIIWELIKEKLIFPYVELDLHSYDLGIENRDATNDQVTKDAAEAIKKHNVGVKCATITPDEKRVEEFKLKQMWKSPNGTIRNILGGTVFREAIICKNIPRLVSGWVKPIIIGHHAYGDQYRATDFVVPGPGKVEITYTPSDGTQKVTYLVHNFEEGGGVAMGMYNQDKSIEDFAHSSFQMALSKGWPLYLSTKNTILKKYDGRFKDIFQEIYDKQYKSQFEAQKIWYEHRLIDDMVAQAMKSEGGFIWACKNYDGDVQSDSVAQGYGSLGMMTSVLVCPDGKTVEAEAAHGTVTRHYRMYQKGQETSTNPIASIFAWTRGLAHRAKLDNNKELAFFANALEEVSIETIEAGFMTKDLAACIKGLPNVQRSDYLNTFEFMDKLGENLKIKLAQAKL
Chain of IDH1 wt/IDH1 R132H heterodimer (O75874 whole entry, stated change not applied): as the sequence (O75874 whole entry R132H) above, with H132R counted along it
Chain of IDH1-R132 homodimer enzyme (R132H) (O75874 whole entry R132H): as the sequence (O75874 whole entry R132H) above
Chain of IDH2 R140Q (P48735 40-452 R140Q): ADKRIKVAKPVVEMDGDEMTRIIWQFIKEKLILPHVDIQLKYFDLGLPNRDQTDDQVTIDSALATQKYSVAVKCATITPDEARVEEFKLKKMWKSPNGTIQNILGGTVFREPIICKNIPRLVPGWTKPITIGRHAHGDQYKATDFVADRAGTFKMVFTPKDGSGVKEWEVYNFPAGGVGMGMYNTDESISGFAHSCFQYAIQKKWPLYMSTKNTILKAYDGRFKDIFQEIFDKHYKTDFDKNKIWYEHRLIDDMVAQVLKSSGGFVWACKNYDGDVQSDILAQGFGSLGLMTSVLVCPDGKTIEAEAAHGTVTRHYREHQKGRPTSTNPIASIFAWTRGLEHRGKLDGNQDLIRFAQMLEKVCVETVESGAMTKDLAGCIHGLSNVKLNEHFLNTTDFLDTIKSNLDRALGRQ
Chain of IDH1 R132C (O75874 whole entry R132C): as the sequence (O75874 whole entry R132H) above, with H132C counted along it

Structure (SMILES)	IC50 (HT1080 cells) [nM]	other results
FC1(F)CC[C@H](Nc2nc(N[C@H]3CCC(F)(F)C3)nc(-c3cncc(C(F)(F)F)n3)n2)C1 [Compound 406]	< 50	–
FC1(F)CCC(Nc2nc(NC3CCC(F)(F)C3)nc(-c3cncc(C(F)(F)F)n3)n2)C1 (centres unmarked) [Compound 138]	< 50	–
N#CC1(c2cc(Nc3nc(N[C@@H]4CCC(F)(F)C4)nc(-n4ccc(C(F)(F)F)n4)n3)ccn2)CC1 [Compound 350]	50 to 100	–
CC(Nc1nc(Nc2ccnc(C(F)(F)F)c2)nc(-n2ccc(C(F)(F)F)n2)n1)C(F)(F)F (centres unmarked) [Compound 177]	50 to 100	–
FC1(F)CC[C@H](Nc2nc(Nc3ccnc(C(F)(F)F)c3)nc(-n3ccc(C(F)(F)F)n3)n2)C1 [Compound 393]	100 to 1000	–
N#CC1(c2cc(Nc3nc(NC4CCC(F)(F)C4)nc(-c4cccc(C(F)(F)F)n4)n3)ccn2)CC1 (centres unmarked) [Compound 151]	50 to 100	–
FC1(F)CCC(Nc2nc(Nc3ccnc(C(F)(F)F)c3)nc(-c3cccc(C(F)(F)F)n3)n2)C1 (centres unmarked) [Compound 178]	100 to 1000	–
N#CC1(c2cc(Nc3nc(N[C@H]4CCC(F)(F)C4)nc(-c4cccc(C(F)(F)F)n4)n3)ccn2)CC1 [Compound 133]	100 to 1000	–
FC1(F)CCC(Nc2nc(Nc3ccnc(C(F)(F)F)c3)nc(-n3ccc(C(F)(F)F)n3)n2)C1 (centres unmarked) [Compound 173]	50 to 100	–
FC1(F)CC[C@H](Nc2nc(Nc3ccnc(C(F)(F)F)c3)nc(-c3cccc(C(F)(F)F)n3)n2)C1 [Compound 158]	100 to 1000	–
Cc1cccc(-c2nc(NC3CCC(F)(F)CC3)nc(N[C@H](C)C3CC3)n2)n1 [Compound 50]	–	IC50 (IDH1 R132C): 50 to 100 nM; IC50 [1]: < 50 nM; IC50 [2]: < 50 nM
FC1(F)CC[C@@H](Nc2nc(Nc3ccnc(C(F)(F)F)c3)nc(-c3cccc(C(F)(F)F)n3)n2)C1 [Compound 172]	50 to 100	–
FC1(F)CC(Nc2nc(Nc3ccnc(C(F)(F)F)c3)nc(-c3cccc(C(F)(F)F)n3)n2)C1 [Compound 190]	100 to 1000	–
CC(C)(O)CNc1nc(Nc2ccnc(C(F)(F)F)c2)nc(-c2cccc(C(F)(F)F)n2)n1 [Compound 288]	–	IC50 [1]: 100 to 1000 nM; IC50 (IDH2 R140Q): 100 to 1000 nM; IC50 [3]: 100 to 1000 nM
N#CC1(c2cc(Nc3nc(NC4CCC(F)(F)C4)nc(-n4ccc(C(F)(F)F)n4)n3)ccn2)CC1 (centres unmarked) [Compound 185]	50 to 100	–
N#CC1(c2cc(Nc3nc(N[C@@H]4CCC(F)(F)C4)nc(-c4cccc(C(F)(F)F)n4)n3)ccn2)CC1 [Compound 137]	50 to 100	–
N#CC1(c2cc(Nc3nc(N[C@H]4CCC(F)(F)C4)nc(-n4ccc(C(F)(F)F)n4)n3)ccn2)CC1 [Compound 174]	50 to 100	–
FC1(F)CC[C@@H](Nc2nc(N[C@H]3CCC(F)(F)C3)nc(-c3cncc(C(F)(F)F)n3)n2)C1 [Compound 399]	< 50	–
FC1(F)CC[C@@H](Nc2nc(N[C@@H]3CCC(F)(F)C3)nc(-c3cncc(C(F)(F)F)n3)n2)C1 [Compound 410]	< 50	–
